Measured values as given in PubChem BioAssay (NCI).
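96-well plates; 48 h exposure; 5 concentrations. Endpoints by linear interpolation between flanking doses. Not reached: highest tested concentration assigned. GI50 = concentration required for 50% inhibition of growth. The concentration for full growth arrest is given as TGI.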

Key:
Assay in all cases: growth of human tumour cells (NCI), 48 h
RPMI-8226 leukemia = tested on: RPMI-8226 leukemia
OVCAR-4 ovarian = tested on: OVCAR-4 ovarian
SF-539 CNS = tested on: SF-539 CNS
SF-295 CNS = tested on: SF-295 CNS
NCI/ADR-RES ovarian = tested on: NCI/ADR-RES ovarian
SNB-75 CNS = tested on: SNB-75 CNS
NCI-H23 lung = tested on: NCI-H23 lung
ACHN renal = tested on: ACHN renal
UO-31 renal = tested on: UO-31 renal
MALME-3M melanoma = tested on: MALME-3M melanoma
SK-MEL-2 melanoma = tested on: SK-MEL-2 melanoma
DU-145 prostate = tested on: DU-145 prostate
HCT-15 colon = tested on: HCT-15 colon
T-47D breast = tested on: T-47D breast
A549 NSCLC = tested on: A549 NSCLC
PC-3 prostate = tested on: PC-3 prostate
HT29 colon = tested on: HT29 colon
SN12C renal = tested on: SN12C renal
NCI-H522 lung = tested on: NCI-H522 lung
KM12 colon = tested on: KM12 colon
HCT-116 colon = tested on: HCT-116 colon
U251 CNS = tested on: U251 CNS
SR leukemia = tested on: SR leukemia
OVCAR-3 ovarian = tested on: OVCAR-3 ovarian
SF-268 CNS = tested on: SF-268 CNS
SNB-19 CNS = tested on: SNB-19 CNS
NCI-H460 lung = tested on: NCI-H460 lung
EKVX NSCLC = tested on: EKVX NSCLC
CAKI-1 renal = tested on: CAKI-1 renal
RXF 393 renal = tested on: RXF 393 renal
K-562 leukemia = tested on: K-562 leukemia
SW-620 colon = tested on: SW-620 colon
BT-549 breast = tested on: BT-549 breast
SK-MEL-5 melanoma = tested on: SK-MEL-5 melanoma
786-0 renal = tested on: 786-0 renal
HS 578T breast = tested on: HS 578T breast
IGROV1 ovarian = tested on: IGROV1 ovarian
CCRF-CEM leukemia = tested on: CCRF-CEM leukemia
HL-60(TB) leukemia = tested on: HL-60(TB) leukemia
TK-10 renal = tested on: TK-10 renal
HOP-92 NSCLC = tested on: HOP-92 NSCLC
COLO 205 colon = tested on: COLO 205 colon
SK-OV-3 ovarian = tested on: SK-OV-3 ovarian
HCC-2998 colon = tested on: HCC-2998 colon
A498 renal = tested on: A498 renal
OVCAR-5 ovarian = tested on: OVCAR-5 ovarian
M14 melanoma = tested on: M14 melanoma
HOP-62 NSCLC = tested on: HOP-62 NSCLC
MDA-MB-231 breast = tested on: MDA-MB-231 breast
MDA-MB-435 = tested on: MDA-MB-435
LOX IMVI melanoma = tested on: LOX IMVI melanoma
NCI-H226 lung = tested on: NCI-H226 lung
MCF7 breast = tested on: MCF7 breast
MOLT-4 leukemia = tested on: MOLT-4 leukemia
OVCAR-8 ovarian = tested on: OVCAR-8 ovarian

CO[C@H](C(=O)[C@@H](O)[C@@H](C)O)[C@@H]1Cc2cc3cc(O[C@H]4C[C@@H](O[C@H]5C[C@@H](O)[C@H](O)C(C)O5)[C@H](O)C(C)(O)O4)cc(O)c3c(O)c2C(=O)[C@H]1O[C@H]1C[C@@H](O[C@H]2C[C@@H](O[C@H]3C[C@@H](OC)[C@H](O)C(C)O3)[C@@H](O)C(C)O2)[C@H](O)C(C)O1 (stereo not given in full)
GI50 (RPMI-8226 leukemia): 833 nM
TGI (RPMI-8226 leukemia): > 16800 nM
GI50 (OVCAR-4 ovarian): 1350 nM
TGI (OVCAR-4 ovarian): > 16800 nM
GI50 (SF-539 CNS): 658 nM
TGI (SF-539 CNS): 12200 nM
GI50 (SF-295 CNS): 666 nM
TGI (SF-295 CNS): > 16800 nM
GI50 (NCI/ADR-RES ovarian): > 16800 nM
TGI (NCI/ADR-RES ovarian): > 16800 nM
GI50 (SNB-75 CNS): 63 nM
TGI (SNB-75 CNS): 6840 nM
GI50 (NCI-H23 lung): 831 nM
TGI (NCI-H23 lung): > 16800 nM
GI50 (ACHN renal): 3680 nM
TGI (ACHN renal): > 16800 nM
GI50 (UO-31 renal): 4060 nM
TGI (UO-31 renal): > 16800 nM
GI50 (MALME-3M melanoma): 212 nM
TGI (MALME-3M melanoma): 14000 nM
GI50 (SK-MEL-2 melanoma): 704 nM
TGI (SK-MEL-2 melanoma): 5180 nM
GI50 (DU-145 prostate): 976 nM
TGI (DU-145 prostate): > 16800 nM
GI50 (HCT-15 colon): > 16800 nM
TGI (HCT-15 colon): > 16800 nM
GI50 (T-47D breast): 447 nM
TGI (T-47D breast): > 16800 nM
GI50 (A549 NSCLC): 828 nM
TGI (A549 NSCLC): > 16800 nM
GI50 (PC-3 prostate): 1420 nM
TGI (PC-3 prostate): > 16800 nM
GI50 (HT29 colon): 1160 nM
TGI (HT29 colon): > 16800 nM
GI50 (SN12C renal): 868 nM
TGI (SN12C renal): > 16800 nM
GI50 (NCI-H522 lung): 354 nM
TGI (NCI-H522 lung): 14800 nM
GI50 (KM12 colon): 786 nM
TGI (KM12 colon): > 16800 nM
GI50 (HCT-116 colon): 542 nM
TGI (HCT-116 colon): > 16800 nM
GI50 (U251 CNS): 387 nM
TGI (U251 CNS): > 16800 nM
GI50 (SR leukemia): 250 nM
TGI (SR leukemia): > 16800 nM
GI50 (OVCAR-3 ovarian): 956 nM
TGI (OVCAR-3 ovarian): > 16800 nM
GI50 (SF-268 CNS): 726 nM
TGI (SF-268 CNS): > 16800 nM
GI50 (SNB-19 CNS): 761 nM
TGI (SNB-19 CNS): > 16800 nM
GI50 (NCI-H460 lung): 469 nM
TGI (NCI-H460 lung): > 16800 nM
GI50 (EKVX NSCLC): 1500 nM
TGI (EKVX NSCLC): > 16800 nM
GI50 (CAKI-1 renal): > 16800 nM
TGI (CAKI-1 renal): > 16800 nM
GI50 (RXF 393 renal): 1270 nM
TGI (RXF 393 renal): 7940 nM
GI50 (K-562 leukemia): 951 nM
TGI (K-562 leukemia): > 16800 nM
GI50 (SW-620 colon): 1310 nM
TGI (SW-620 colon): > 16800 nM
GI50 (BT-549 breast): 2040 nM
TGI (BT-549 breast): > 16800 nM
GI50 (SK-MEL-5 melanoma): 509 nM
TGI (SK-MEL-5 melanoma): 2970 nM
GI50 (786-0 renal): 1510 nM
TGI (786-0 renal): > 16800 nM
GI50 (HS 578T breast): 708 nM
TGI (HS 578T breast): > 16800 nM
GI50 (IGROV1 ovarian): 809 nM
TGI (IGROV1 ovarian): > 16800 nM
GI50 (CCRF-CEM leukemia): 5000 nM
TGI (CCRF-CEM leukemia): > 16800 nM
GI50 (HL-60(TB) leukemia): 11200 nM
TGI (HL-60(TB) leukemia): > 16800 nM
GI50 (TK-10 renal): 2800 nM
TGI (TK-10 renal): > 16800 nM
GI50 (HOP-92 NSCLC): 528 nM
TGI (HOP-92 NSCLC): 8660 nM
GI50 (COLO 205 colon): 720 nM
TGI (COLO 205 colon): 4940 nM
GI50 (SK-OV-3 ovarian): 671 nM
TGI (SK-OV-3 ovarian): > 16800 nM
GI50 (HCC-2998 colon): 1920 nM
TGI (HCC-2998 colon): > 16800 nM
GI50 (A498 renal): 369 nM
TGI (A498 renal): 1290 nM
GI50 (OVCAR-5 ovarian): 2950 nM
TGI (OVCAR-5 ovarian): > 16800 nM
GI50 (M14 melanoma): 2560 nM
TGI (M14 melanoma): > 16800 nM
GI50 (HOP-62 NSCLC): 521 nM
TGI (HOP-62 NSCLC): > 16800 nM
GI50 (MDA-MB-231 breast): 1890 nM
TGI (MDA-MB-231 breast): > 16800 nM
GI50 (MDA-MB-435): 895 nM
TGI (MDA-MB-435): > 16800 nM
GI50 (LOX IMVI melanoma): 384 nM
TGI (LOX IMVI melanoma): > 16800 nM
GI50 (NCI-H226 lung): 796 nM
TGI (NCI-H226 lung): 5340 nM
GI50 (MCF7 breast): 185 nM
TGI (MCF7 breast): > 16800 nM
GI50 (MOLT-4 leukemia): 1200 nM
TGI (MOLT-4 leukemia): > 16800 nM
GI50 (OVCAR-8 ovarian): 1550 nM
TGI (OVCAR-8 ovarian): > 16800 nM
